Test system: Runx2
Assay: Runx2 activity, 6xOSE2-Luc luciferase reporter in transfected C2C12 cells
Assay type: cell-based, Mouse
Settings: 24 hrs; for fold induction at 2.5 µM / fold induction at 5 µM / fold induction at 10 µM / fold induction at 20 µM: Mus musculus, read-out: luciferase activity relative to control set as 1
Procedure, shortened: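 Compound exposure of 24 h at 2.5, 5.0, 10 and 20 μM, in 5% FBS DMEM, was applied to transfected C2C12 cells with an OSE2 hexamer-driven luciferase construct reporting Runx2 activity. Read-out: dual-luciferase signal in cell lysates, normalised to equal-volume DMSO control (=1).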

Cc1c(C(=O)NCCCCCC(=O)NO)cccc1-c1ccccc1 [Example 92, N-(5-(hydroxycarbamoyl)pentyl)-2-methyl-3-phenylbenzamide]
fold induction at 2.5 µM (2.5 μM): 4.1
fold induction at 5 µM (5.0 μM): 8.8
fold induction at 10 µM (10 μM): 12.4
fold induction at 20 µM (20 μM): 11.5

Nc1ccccc1NC(=O)c1ccc(CN2Cc3c(Br)cccc3C2=O)cc1 [Example 9, N-(2-aminophenyl)-4-((4-bromo-1-oxoisoindolin-2-yl)methyl)benzamide]
fold induction at 2.5 µM (2.5 μM): 12.4
fold induction at 5 µM (5.0 μM): 11.3
fold induction at 10 µM (10 μM): 9.7
fold induction at 20 µM (20 μM): 9.4

Nc1ccccc1NC(=O)c1ccc(CN2Cc3c(cccc3-c3ccc(Oc4ccccc4)cc3)C2=O)cc1 [Example 29, N-(2-aminophenyl)-4-((1-oxo-4-(4-phenoxyphenyl)isoindolin-2-yl)methyl)benzamide]
fold induction at 2.5 µM (2.5 μM): 3.4
fold induction at 5 µM (5.0 μM): 5.6
fold induction at 10 µM (10 μM): 10.5
fold induction at 20 µM (20 μM): 10

COc1cc2c(c(-c3cc(C)cc(C)c3)c1OC)CN(CCCCCC(=O)Nc1ccccc1N)C2=O [Example 32, N-(2-aminophenyl)-6-(5,6-dimethoxy-4-(3,5-dimethylphenyl)-1-oxoisoindolin-2-yl)hexanamide]
fold induction at 2.5 µM (2.5 μM): 4.4
fold induction at 5 µM (5.0 μM): 9.2
fold induction at 10 µM (10 μM): 18.5
fold induction at 20 µM (20 μM): 23.8

COc1cc(C(=O)NCc2ccc(C(=O)Nc3ccccc3N)cc2)c(C)c(-c2cccnc2)c1OC [Example 76, N-(2-aminophenyl)-4-((2-methyl-3-(3-pyridinyl)-4,5-dimethoxy-benzamido)methyl)benzamide]
fold induction at 2.5 µM (2.5 μM): 4.5
fold induction at 5 µM (5.0 μM): 8.5
fold induction at 10 µM (10 μM): 20.8
fold induction at 20 µM (20 μM): 32.9

COc1cc2c(c(-c3cc(C)cc(C)c3)c1OC)CN(Cc1ccc(C(=O)Nc3ccccc3N)cc1)C2=O [Example 3, N-(2-aminophenyl)-4-((5,6-dimethoxy-4-(3,5-dimethylphenyl)-1-oxoisoindolon-2-yl)methyl)benzamide]
luciferase activity relative to control set as 1 (2.5 μM): 25.2 fold
luciferase activity relative to control set as 1 (5.0 μM): 25.7 fold
luciferase activity relative to control set as 1 (10 μM): 22.7 fold
luciferase activity relative to control set as 1 (20 μM): 18.7 fold

COc1cc2c(c(-c3cc(F)cc(F)c3)c1OC)CN(CCCCCC(=O)Nc1ccccc1N)C2=O [Example 34, N-(2-aminophenyl)-6-(4-(3,5-difluorophenyl)-5,6-dimethoxy-1-oxoisoindolin-2-yl)hexanamide]
fold induction at 2.5 µM (2.5 μM): 3.7
fold induction at 5 µM (5.0 μM): 7.4
fold induction at 10 µM (10 μM): 18
fold induction at 20 µM (20 μM): 23

Cc1cc(C(=O)NCCCCCC(=O)Nc2ccccc2N)ccc1Br [Example 85, N-(5-(2-aminophenylcarbamoyl)pentyl)-4-bromo-3-methylbenzamide]
fold induction at 2.5 µM (2.5 μM): 2.15
fold induction at 5 µM (5.0 μM): 6.7
fold induction at 10 µM (10 μM): 13.9
fold induction at 20 µM (20 μM): 14.3

COc1ccc(-c2ccc3c(c2)CN(Cc2ccc(C(=O)Nc4ccccc4N)cc2)C3=O)cc1 [Example 63]
luciferase activity relative to control set as 1 (2.5 μM): 8.3 fold
luciferase activity relative to control set as 1 (5.0 μM): 10.3 fold
luciferase activity relative to control set as 1 (10 μM): 13.1 fold
luciferase activity relative to control set as 1 (20 μM): 14.2 fold

Nc1ccccc1NC(=O)c1ccc(CN2Cc3cc(-c4cccnc4)ccc3C2=O)cc1 [Example 61, N-(2-aminophenyl)-4-((1-oxo-5-(pyridin-3-yl)isoindolin-2-yl)methyl)benzamide]
fold induction at 2.5 µM (2.5 μM): 9.6
fold induction at 5 µM (5.0 μM): 10.6
fold induction at 10 µM (10 μM): 14.2
fold induction at 20 µM (20 μM): 15.6

Cc1c(C(=O)NCc2ccc(C(=O)Nc3ccccc3N)cc2)cccc1-c1ccccc1 [Example 69, N-(2-aminophenyl)-4-((2-methyl-3-phenyl-benzamido)methyl)benzamide]
fold induction at 2.5 µM (2.5 μM): 13.5
fold induction at 5 µM (5.0 μM): 22
fold induction at 10 µM (10 μM): 29.2
fold induction at 20 µM (20 μM): 30.6

COc1ccc(-c2cccc(C(=O)NCCCCCC(=O)Nc3ccccc3N)c2C)c(OC)c1 [Example 82, N-(5-(2-aminophenylcarbamoyl)pentyl)-2-methyl-3-(2,4-dimethoxyphenyl)-benzamide]
fold induction at 2.5 µM (2.5 μM): 1.5
fold induction at 5 µM (5.0 μM): 2.5
fold induction at 10 µM (10 μM): 6
fold induction at 20 µM (20 μM): 10.9

O=C(CCCCCN1Cc2cc(-c3ccc(C(F)(F)F)cc3)ccc2C1=O)NO [Example 55, 6-(5-(4-(trifluoromethyl)phenyl)-1-oxoisoindolin-2-yl)-N-hydroxyhexanamide]
fold induction at 2.5 µM (2.5 μM): 2.7
fold induction at 5 µM (5.0 μM): 3.7
fold induction at 10 µM (10 μM): 5.5
fold induction at 20 µM (20 μM): 13.3

Cc1cc(C)cc(-c2ccc(C(=O)NCCCCCC(=O)Nc3ccccc3N)cc2C)c1 [Example 91, N-(5-(2-aminophenylcarbamoyl)pentyl)-3-methyl-4-(3,5-dimethylphenyl)-benzamide]
fold induction at 2.5 µM (2.5 μM): 1.1
fold induction at 5 µM (5.0 μM): 1.5
fold induction at 10 µM (10 μM): 2.9
fold induction at 20 µM (20 μM): 3.9

O=C(CCCCCN1Cc2cc(-c3ccccc3)ccc2C1=O)NO [Example 49, N-hydroxy-6-(1-oxo-5-phenylisoindolin-2-yl)hexanamide]
fold induction at 2.5 µM (2.5 μM): 4.8
fold induction at 5 µM (5.0 μM): 10.6
fold induction at 10 µM (10 μM): 28.1
fold induction at 20 µM (20 μM): 26.5

Cc1cc(C(=O)NCCCCCC(=O)Nc2ccccc2N)ccc1-c1cccnc1 [Example 88, N-(5-(2-aminophenylcarbamoyl)pentyl)-3-methyl-4-(3-pyridinyl)-benzamide]
fold induction at 2.5 µM (2.5 μM): 6
fold induction at 5 µM (5.0 μM): 16.8
fold induction at 10 µM (10 μM): 28.1
fold induction at 20 µM (20 μM): 41.2

Nc1ccccc1NC(=O)c1ccc(CN2Cc3c(cccc3-c3ccc4ccccc4c3)C2=O)cc1 [Example 21, N-(2-aminophenyl)-4-((4-(naphthalen-2-yl)-1-oxoisoindolin-2-yl)methyl)benzamide]
fold induction at 2.5 µM (2.5 μM): 6.4
fold induction at 5 µM (5.0 μM): 8.7
fold induction at 10 µM (10 μM): 11.6
fold induction at 20 µM (20 μM): 11.7

COc1cc2c(c(-c3ccc(C(F)(F)F)cc3)c1OC)CN(Cc1ccc(C(=O)Nc3ccccc3N)cc1)C2=O [Example 6, N-(2-aminophenyl)-4-((4-(4-(trifluoromethyl)phenyl)-5,6-dimethoxy-1-oxoisoindolin-2-yl)methyl)benzamide]
fold induction at 2.5 µM (2.5 μM): 14.2
fold induction at 5 µM (5.0 μM): 18.3
fold induction at 10 µM (10 μM): 17.2
fold induction at 20 µM (20 μM): 9.3

O=C(CCCCCN1Cc2cc(-c3cc(F)cc(F)c3)ccc2C1=O)NO [Example 53, 6-(5-(3,5-difluorophenyl)-1-oxoisoindolin-2-yl)-N-hydroxyhexanamide]
fold induction at 2.5 µM (2.5 μM): 1.7
fold induction at 5 µM (5.0 μM): 3
fold induction at 10 µM (10 μM): 5.6
fold induction at 20 µM (20 μM): 13.3
